For five compounds, GI50, TGI and outcome results are on record in PubChem BioAssay (NCI).

Molecules are shown by their SMILES. Values joined by “and” are separate entries in the source; they are usually repeats but may differ in a detail not shown here. Equal values may be shown once.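 Following 48 hours of exposure in 96-well plates, responses at five concentrations were used to interpolate endpoints linearly. Here, GI50 denotes the concentration required for 50% inhibition of growth. TGI: concentration producing complete growth inhibition.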 Active and inactive are the calls of the source. Rule as the data show it: active = GI50 below about 0.43 µM; inactive = the rest.

Test systems include K-562 leukemia; SK-MEL-5 melanoma; HS 578T breast; MCF7 breast; SK-MEL-2 melanoma; CAKI-1 renal; CCRF-CEM leukemia; M14 melanoma; KM20L2 colon; LXFL 529 NSCLC.
What all share (assay): NCI anticancer screen, dose series, 48 h

In the case of `Cc1cc(O)c2c(c1)C[C@@H](O)C1=C2C(=O)c2c(O)ccc(OC3CC(O)C(OC4CC(OC5CCC(OC6CC(O)C(OC7CC(OC8CCC(O)C(C)O8)C(O)C(C)O7)C(C)O6)C(C)O5)C(O)C(C)O4)C(C)O3)c2C1=O` (some centres undefined), the GI50 in the experiment with K-562 leukemia is 144 nM; in the experiment with SK-MEL-5 melanoma it was 1330 nM and 1200 nM; in the experiment with HS 578T breast, 1590 nM; in the experiment with MCF7 breast it was 394 nM and 921 nM; with SK-MEL-2 melanoma, 890 nM; in the experiment with CAKI-1 renal it was 398 nM and 439 nM. Moreover, the GI50 is 38.6 nM in the experiment with CCRF-CEM leukemia; 822 nM and 1280 nM in the experiment with M14 melanoma. For the same compound, the TGI in the experiment on K-562 leukemia was 0.267 µM and 0.457 µM; in the experiment with MCF7 breast, 599 nM and 1690 nM and 2320 nM; with CAKI-1 renal, 274 nM and 1180 nM and 1450 nM; in the experiment with CCRF-CEM leukemia, 0.255 µM and 0.266 µM; in the experiment with KM20L2 colon it was 0.191 µM; in the experiment with LXFL 529 NSCLC, 0.0293 µM.
With `COc1c(O)c2ccccc2c2cc(O)ccc12`, the TGI with K-562 leukemia is 21.9 µM; in the experiment on SK-MEL-5 melanoma, 5.59 µM; in the experiment with HS 578T breast it was above 58.9 µM; in the experiment on MCF7 breast it was 8220 nM; with SK-MEL-2 melanoma, 11.9 µM; in the experiment on CAKI-1 renal, 22900 nM. The TGI stood at 73.8 µM in the experiment with CCRF-CEM leukemia, 8.57 µM in the experiment with M14 melanoma, 46.6 µM with KM20L2 colon and 9.9 µM in the experiment on LXFL 529 NSCLC.
Turning to `O=C(Nc1ccc(Cl)cc1)NS(=O)(=O)c1ccc2c(c1)CCC2`, the GI50 was 11.3 µg/mL in the experiment on K-562 leukemia; 20.6 µg/mL with SK-MEL-5 melanoma; 21.6 µg/mL in the experiment with SK-MEL-2 melanoma; 10.5 µg/mL with CCRF-CEM leukemia; 20.2 µg/mL with M14 melanoma. In addition, the TGI is > 77.1 µM and 150 µg/mL with K-562 leukemia; > 74 µM and 40 µg/mL with SK-MEL-5 melanoma; 13.1 µM in the experiment with HS 578T breast; 81800 nM with MCF7 breast; > 100 µM and 48.6 µg/mL in the experiment on SK-MEL-2 melanoma; above 100000 nM in the experiment with CAKI-1 renal. The TGI is > 100 µM and 57.4 µg/mL in the experiment on CCRF-CEM leukemia; 97.5 µM and 45.1 µg/mL in the experiment with M14 melanoma; above 100 µM in the experiment on KM20L2 colon; above 100 µM in the experiment on LXFL 529 NSCLC. Besides, the result in the experiment on KM20L2 colon and in the experiment with LXFL 529 NSCLC was inactive.
For `[N-]=[N+]=Nc1ccc(S(=O)(=O)Oc2cc(OS(=O)(=O)c3ccc(N=[N+]=[N-])cc3)cc(OS(=O)(=O)c3ccc(N=[N+]=[N-])cc3)c2)cc1`, the TGI was above 100 µM with K-562 leukemia; above 100 µM in the experiment on SK-MEL-5 melanoma; above 100 µM with SK-MEL-2 melanoma; above 10000 nM in the experiment with CAKI-1 renal; above 100 µM with CCRF-CEM leukemia; above 100 µM with M14 melanoma. Moreover, the TGI in the experiment with KM20L2 colon and with LXFL 529 NSCLC was above 100 µM in each case.
On to `CC(=O)OCC1OC(n2cc(F)c(=O)[nH]c2=O)C(OC(C)=O)C1OC(C)=O` (centres undefined), for which the TGI was above 100 µM in the experiment with K-562 leukemia; above 100 µM with SK-MEL-5 melanoma; above 100 µM with HS 578T breast; above 45300 nM in the experiment on MCF7 breast; above 100 µM in the experiment on SK-MEL-2 melanoma; above 100000 nM with CAKI-1 renal. Besides, the TGI in the experiment with CCRF-CEM leukemia, in the experiment with M14 melanoma, in the experiment on KM20L2 colon and with LXFL 529 NSCLC was above 100 µM each time.
